pIC50: −log10 of the molar value.
System: KRAS PDC multicell spheroid viability
Test: Anticancer human tumor 521955-158-R6-J3-PDC patient-derived pancreatic carcinoma cell line growth inhibition [KRAS2]
Details: for pIC50: curve of first compound; for viability, T/C: stronger effect = lower value
Outline: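 Combination screen of spheroid viability in tumor-cell co-cultures with endothelial (HUVEC) and mesenchymal stem cell stroma. Each agent was tested in half-log dilutions, topping at clinical Cmax or at 10 microM without a known Cmax.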

[1] = second compound 0.1 µM, first compound 0.0316 µM
[2] = second compound 0.1 µM, first compound 0.1 µM
[3] = second compound 0.1 µM, first compound 0.316 µM
[4] = second compound 0.1 µM, first compound 1 µM
[5] = second compound 0.1 µM, first compound 3.16 µM
[6] = second compound 0.1 µM, first compound 10 µM
[7] = second compound 0.316 µM, first compound 0.0316 µM
[8] = second compound 0.316 µM, first compound 0.1 µM
[9] = second compound 0.316 µM, first compound 0.316 µM
[10] = second compound 0.316 µM, first compound 1 µM
[11] = second compound 0.316 µM, first compound 3.16 µM
[12] = second compound 0.316 µM, first compound 10 µM
[13] = second compound 1 µM, first compound 0.0316 µM
[14] = second compound 1 µM, first compound 0.1 µM
[15] = second compound 1 µM, first compound 0.316 µM
[16] = second compound 1 µM, first compound 1 µM
[17] = second compound 1 µM, first compound 3.16 µM
[18] = second compound 1 µM, first compound 10 µM
[19] = second compound 3.16 µM, first compound 0.0316 µM
[20] = second compound 3.16 µM, first compound 0.1 µM
[21] = second compound 3.16 µM, first compound 0.316 µM
[22] = second compound 3.16 µM, first compound 1 µM
[23] = second compound 3.16 µM, first compound 3.16 µM
[24] = second compound 3.16 µM, first compound 10 µM
[25] = second compound 10 µM, first compound 0.0316 µM
[26] = second compound 10 µM, first compound 0.1 µM
[27] = second compound 10 µM, first compound 0.316 µM
[28] = second compound 10 µM, first compound 1 µM
[29] = second compound 10 µM, first compound 3.16 µM
[30] = second compound 10 µM, first compound 10 µM
[31] = second compound 0.1 µM, first compound 0.01 µM
[32] = second compound 0.316 µM, first compound 0.01 µM
[33] = second compound 1 µM, first compound 0.01 µM
[34] = second compound 3.16 µM, first compound 0.01 µM
[35] = second compound 10 µM, first compound 0.01 µM
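Further: drug exposure lasted seven days.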
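Wherever viability, T/C is given: 100% = DMSO vehicle wells and lower means fewer viable cells.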

Row | SMILES | pIC50 (second compound 0.1 µM) | pIC50 (second compound 0.316 µM) | pIC50 (second compound 1 µM) | pIC50 (second compound 3.16 µM) | pIC50 (second compound 10 µM) | viability, T/C [1] [%] | viability, T/C [2] [%] | viability, T/C [3] [%] | viability, T/C [4] [%] | viability, T/C [7] [%] | viability, T/C [8] [%] | viability, T/C [9] [%] | viability, T/C [10] [%] | viability, T/C [13] [%] | viability, T/C [14] [%] | viability, T/C [15] [%] | viability, T/C [16] [%] | viability, T/C [19] [%] | viability, T/C [20] [%] | viability, T/C [21] [%] | further results
1 | CC(C)NCC(C(=O)N1CCN(c2ncnc3c2C(C)CC3O)CC1)c1ccc(Cl)cc1 (stereo not given) + COc1cc2nc(C)nc(NC(C)c3cc(N)cc(C(F)(F)F)c3)c2cc1OC1CCOC1 | < 5.00 | < 5.00 | < 5.00 | < 5.00 | > 7.50 | 96.1 | 90.2 | 76.1 | 84.9 | 83.8 | 79 | 75.7 | 70.3 | 82.3 | 83.8 | 73.5 | 69.2 | 63.3 | 62.1 | 67.2 | viability, T/C [5]: 72.8%; viability, T/C [6]: 71.8%; viability, T/C [11]: 77.7%; viability, T/C [12]: 64.6%; viability, T/C [17]: 70.5%; viability, T/C [18]: 59.6%; viability, T/C [22]: 63.7%; viability, T/C [23]: 72.1%; viability, T/C [24]: 67.7%; viability, T/C [25]: 44.1%; viability, T/C [26]: 40.2%; viability, T/C [27]: 46.1%; viability, T/C [28]: 28.4%; viability, T/C [29]: 27.1%; viability, T/C [30]: 16.7%
2 | CC1COCCN1c1cc(-c2ccnn2C)c2ccnc(-c3ccn[nH]3)c2n1 (stereo not given) + COc1cc2nc(C)nc(NC(C)c3cc(N)cc(C(F)(F)F)c3)c2cc1OC1CCOC1 | < 5.50 | < 5.50 | < 5.50 | < 5.50 | > 8.00 | 85.4 | 71.3 | 78.3 | 65.5 | 79.6 | 79.1 | 71 | 64.4 | 78.2 | 78.3 | 68.6 | 66.8 | 71.6 | 62.4 | 54.6 | viability, T/C [31]: 100%; viability, T/C [5]: 80.4%; viability, T/C [32]: 82.8%; viability, T/C [11]: 75.3%; viability, T/C [33]: 88.5%; viability, T/C [17]: 74.8%; viability, T/C [34]: 77.6%; viability, T/C [22]: 64.3%; viability, T/C [23]: 59.1%; viability, T/C [35]: 41.5%; viability, T/C [25]: 48.4%; viability, T/C [26]: 45.3%; viability, T/C [27]: 34.1%; viability, T/C [28]: 47.6%; viability, T/C [29]: 43.4%
3 | CCN1CCN(Cc2ccc(Nc3ncc(F)c(-c4cc(F)c5nc(C)n(C(C)C)c5c4)n3)nc2)CC1 + COc1cc2nc(C)nc(NC(C)c3cc(N)cc(C(F)(F)F)c3)c2cc1OC1CCOC1 | < 6.00 | < 6.00 | < 6.00 | < 6.00 | > 8.50 | 69.7 | 83.9 | 73.7 | 101 | 88.3 | 69.8 | 71.8 | 88.8 | 86.1 | 75.6 | 71.5 | 86.8 | 79.1 | 66.8 | 69.8 | viability, T/C (second compound 0.1 µM, first compound 0.00316 µM): 105%; viability, T/C [31]: 88%; viability, T/C (second compound 0.316 µM, first compound 0.00316 µM): 93.8%; viability, T/C [32]: 84.5%; viability, T/C (second compound 1 µM, first compound 0.00316 µM): 90.7%; viability, T/C [33]: 84.1%; viability, T/C (second compound 3.16 µM, first compound 0.00316 µM): 87.1%; viability, T/C [34]: 82.1%; viability, T/C [22]: 77.4%; viability, T/C (second compound 10 µM, first compound 0.00316 µM): 33.4%; viability, T/C [35]: 33.6%; viability, T/C [25]: 40.5%; viability, T/C [26]: 55.1%; viability, T/C [27]: 17.6%; viability, T/C [28]: 10%
4 | CCNC(=O)CC1N=C(c2ccc(Cl)cc2)c2cc(OC)ccc2-n2c(C)nnc21 (stereo not given) + COc1cc2nc(C)nc(NC(C)c3cc(N)cc(C(F)(F)F)c3)c2cc1OC1CCOC1 | < 5.00 | < 5.00 | < 5.00 | < 5.00 | 7.42 | 91.4 | 87.3 | 75.6 | 75.2 | 95.6 | 103 | 76.3 | 72.4 | 83.7 | 86.2 | 74.1 | 65.6 | 70.8 | 71.3 | 66.5 | viability, T/C [5]: 70.5%; viability, T/C [6]: 75.8%; viability, T/C [11]: 68.5%; viability, T/C [12]: 73.1%; viability, T/C [17]: 69.5%; viability, T/C [18]: 66.8%; viability, T/C [22]: 73.8%; viability, T/C [23]: 60.7%; viability, T/C [24]: 75.4%; viability, T/C [25]: 48.7%; viability, T/C [26]: 52%; viability, T/C [27]: 39.5%; viability, T/C [28]: 34.2%; viability, T/C [29]: 40%; viability, T/C [30]: 28.4%
5 | Cn1nccc1Nc1nccc(-c2cc3c(s2)C(C)(C)N(CCN2CCOCC2)C3=O)n1 + COc1cc2nc(C)nc(NC(C)c3cc(N)cc(C(F)(F)F)c3)c2cc1OC1CCOC1 | < 5.00 | < 5.00 | < 5.00 | 5.21 | > 7.50 | 88.5 | 111 | 96.4 | 85.5 | 86.5 | 111 | 103 | 81.9 | 79.1 | 111 | 99.6 | 82.2 | 83.6 | 110 | 94.8 | viability, T/C [5]: 79.6%; viability, T/C [6]: 64.8%; viability, T/C [11]: 71.2%; viability, T/C [12]: 57.7%; viability, T/C [17]: 65.4%; viability, T/C [18]: 56.1%; viability, T/C [22]: 73.7%; viability, T/C [23]: 55.9%; viability, T/C [24]: 45.8%; viability, T/C [25]: 26.8%; viability, T/C [26]: 30%; viability, T/C [27]: 16%; viability, T/C [28]: 14.1%; viability, T/C [29]: 6.82%; viability, T/C [30]: 3.23%

Source: PubChem BioAssay AID1963864 (Molecular Pharmacology Branch, DTP, NCI, 2024)
